# Test results: PubChem BioAssay (NCI)
#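 Abbreviation: GI50, concentration required for 50% inhibition of growth. The concentration for full growth arrest is given as TGI.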
# Assays:
# Test in all cases: growth of human tumour cells (NCI), 384-well format
# SK-MEL-5 melanoma = test system: SK-MEL-5 melanoma
# ACHN renal = test system: ACHN renal
# A498 renal = test system: A498 renal
# CCRF-CEM leukemia = test system: CCRF-CEM leukemia
# SF-268 CNS = test system: SF-268 CNS
# DU-145 prostate = test system: DU-145 prostate
# SK-MEL-2 melanoma = test system: SK-MEL-2 melanoma
# K-562 leukemia = test system: K-562 leukemia
# KM12 colon = test system: KM12 colon
# OVCAR-8 ovarian = test system: OVCAR-8 ovarian
# NCI-H23 lung = test system: NCI-H23 lung
# SNB-19 CNS = test system: SNB-19 CNS
# A549 NSCLC = test system: A549 NSCLC
# SR leukemia = test system: SR leukemia
# HOP-62 NSCLC = test system: HOP-62 NSCLC
# NCI-H226 lung = test system: NCI-H226 lung
# SF-539 CNS = test system: SF-539 CNS
# MCF7 breast = test system: MCF7 breast
# IGROV1 ovarian = test system: IGROV1 ovarian
# OVCAR-3 ovarian = test system: OVCAR-3 ovarian
# T-47D breast = test system: T-47D breast
# M14 melanoma = test system: M14 melanoma
# RXF 393 renal = test system: RXF 393 renal
# U251 glioblastoma = test system: U251 glioblastoma
# NCI-H322M lung = test system: NCI-H322M lung
# RPMI-8226 leukemia = test system: RPMI-8226 leukemia
# SN12C renal = test system: SN12C renal
# LOX IMVI melanoma = test system: LOX IMVI melanoma
# UACC-257 melanoma = test system: UACC-257 melanoma
# NCI-H522 lung = test system: NCI-H522 lung
# MDA-MB-231 breast = test system: MDA-MB-231 breast
# SNB-75 CNS = test system: SNB-75 CNS
# HL-60(TB) leukemia = test system: HL-60(TB) leukemia
# MDA-MB-468 breast = test system: MDA-MB-468 breast
# BT-549 breast = test system: BT-549 breast
# SK-OV-3 ovarian = test system: SK-OV-3 ovarian
# HCC-2998 colon = test system: HCC-2998 colon
# EKVX NSCLC = test system: EKVX NSCLC
# TK-10 renal = test system: TK-10 renal
# CAKI-1 renal = test system: CAKI-1 renal
# OVCAR-4 ovarian = test system: OVCAR-4 ovarian
# SW-620 colon = test system: SW-620 colon
# NCI-H460 NSCLC = test system: NCI-H460 NSCLC
# COLO 205 colon = test system: COLO 205 colon
# SK-MEL-28 melanoma = test system: SK-MEL-28 melanoma
# HT29 colon = test system: HT29 colon
# 786-0 renal = test system: 786-0 renal
# MDA-MB-435 melanoma = test system: MDA-MB-435 melanoma
# NCI/ADR-RES ovarian = test system: NCI/ADR-RES ovarian
# HOP-92 NSCLC = test system: HOP-92 NSCLC
# UACC-62 melanoma = test system: UACC-62 melanoma
# HCT-15 colon = test system: HCT-15 colon
# OVCAR-5 ovarian = test system: OVCAR-5 ovarian
# HCT-116 colon = test system: HCT-116 colon
# PC-3 prostate = test system: PC-3 prostate
# MALME-3M melanoma = test system: MALME-3M melanoma
# HS 578T breast = test system: HS 578T breast
# MOLT-4 leukemia = test system: MOLT-4 leukemia
# SF-295 CNS = test system: SF-295 CNS
structure (smiles),measurement,setting,value
C[C@@H]1CCN(C(=O)CC#N)C[C@@H]1N(C)c1ncnc2[nH]ccc12,GI50,SK-MEL-5 melanoma,> 100 µM
same,TGI,SK-MEL-5 melanoma,> 100 µM
same,GI50,ACHN renal,> 100 µM
same,TGI,ACHN renal,> 100 µM
same,GI50,A498 renal,> 100 µM
same,TGI,A498 renal,> 100 µM
same,GI50,CCRF-CEM leukemia,> 100 µM
same,TGI,CCRF-CEM leukemia,> 100 µM
same,GI50,SF-268 CNS,99.8 µM
same,TGI,SF-268 CNS,> 100 µM
same,GI50,DU-145 prostate,> 100 µM
same,TGI,DU-145 prostate,> 100 µM
same,GI50,SK-MEL-2 melanoma,> 100 µM
same,TGI,SK-MEL-2 melanoma,> 100 µM
same,GI50,K-562 leukemia,> 100 µM
same,TGI,K-562 leukemia,> 100 µM
same,GI50,KM12 colon,> 100 µM
same,TGI,KM12 colon,> 100 µM
same,GI50,OVCAR-8 ovarian,> 100 µM
same,TGI,OVCAR-8 ovarian,> 100 µM
same,GI50,NCI-H23 lung,> 100 µM
same,TGI,NCI-H23 lung,> 100 µM
same,GI50,SNB-19 CNS,> 100 µM
same,TGI,SNB-19 CNS,> 100 µM
same,GI50,A549 NSCLC,> 100 µM
same,TGI,A549 NSCLC,> 100 µM
same,GI50,SR leukemia,> 100 µM
same,TGI,SR leukemia,> 100 µM
same,GI50,HOP-62 NSCLC,> 100 µM
same,TGI,HOP-62 NSCLC,> 100 µM
same,GI50,NCI-H226 lung,> 42.6 µM
same,TGI,NCI-H226 lung,> 85.5 µM
same,GI50,SF-539 CNS,> 100 µM
same,TGI,SF-539 CNS,> 100 µM
same,GI50,MCF7 breast,> 100 µM
same,TGI,MCF7 breast,> 100 µM
same,GI50,IGROV1 ovarian,> 79.9 µM
same,TGI,IGROV1 ovarian,> 100 µM
same,GI50,OVCAR-3 ovarian,> 100 µM
same,TGI,OVCAR-3 ovarian,> 100 µM
same,GI50,T-47D breast,> 100 µM
same,TGI,T-47D breast,> 100 µM
same,GI50,M14 melanoma,> 100 µM
same,TGI,M14 melanoma,> 100 µM
same,GI50,RXF 393 renal,> 80.4 µM
same,TGI,RXF 393 renal,> 100 µM
same,GI50,U251 glioblastoma,> 100 µM
same,TGI,U251 glioblastoma,> 100 µM
same,GI50,NCI-H322M lung,> 100 µM
same,TGI,NCI-H322M lung,> 100 µM
same,GI50,RPMI-8226 leukemia,> 100 µM
same,TGI,RPMI-8226 leukemia,> 100 µM
same,GI50,SN12C renal,> 94 µM
same,TGI,SN12C renal,> 100 µM
same,GI50,LOX IMVI melanoma,> 100 µM
same,TGI,LOX IMVI melanoma,> 100 µM
same,GI50,UACC-257 melanoma,> 100 µM
same,TGI,UACC-257 melanoma,> 100 µM
same,GI50,NCI-H522 lung,> 83.7 µM
same,TGI,NCI-H522 lung,> 100 µM
same,GI50,MDA-MB-231 breast,62.5 µM
same,TGI,MDA-MB-231 breast,> 100 µM
same,GI50,SNB-75 CNS,61.5 µM
same,TGI,SNB-75 CNS,> 100 µM
same,GI50,HL-60(TB) leukemia,> 100 µM
same,TGI,HL-60(TB) leukemia,> 100 µM
same,GI50,MDA-MB-468 breast,> 100 µM
same,TGI,MDA-MB-468 breast,> 100 µM
same,GI50,BT-549 breast,> 100 µM
same,TGI,BT-549 breast,> 100 µM
same,GI50,SK-OV-3 ovarian,> 58 µM
same,TGI,SK-OV-3 ovarian,> 100 µM
same,GI50,HCC-2998 colon,> 100 µM
same,TGI,HCC-2998 colon,> 100 µM
same,GI50,EKVX NSCLC,> 100 µM
same,TGI,EKVX NSCLC,> 100 µM
same,GI50,TK-10 renal,> 71.4 µM
same,TGI,TK-10 renal,> 100 µM
same,GI50,CAKI-1 renal,> 100 µM
same,TGI,CAKI-1 renal,> 100 µM
same,GI50,OVCAR-4 ovarian,> 100 µM
same,TGI,OVCAR-4 ovarian,> 100 µM
same,GI50,SW-620 colon,> 100 µM
same,TGI,SW-620 colon,> 100 µM
same,GI50,NCI-H460 NSCLC,> 100 µM
same,TGI,NCI-H460 NSCLC,> 100 µM
same,GI50,COLO 205 colon,> 100 µM
same,TGI,COLO 205 colon,> 100 µM
same,GI50,SK-MEL-28 melanoma,> 100 µM
same,TGI,SK-MEL-28 melanoma,> 100 µM
same,GI50,HT29 colon,> 100 µM
same,TGI,HT29 colon,> 100 µM
same,GI50,786-0 renal,> 100 µM
same,TGI,786-0 renal,> 100 µM
same,GI50,MDA-MB-435 melanoma,> 100 µM
same,TGI,MDA-MB-435 melanoma,> 100 µM
same,GI50,NCI/ADR-RES ovarian,> 100 µM
same,TGI,NCI/ADR-RES ovarian,> 100 µM
same,GI50,HOP-92 NSCLC,> 100 µM
same,TGI,HOP-92 NSCLC,> 100 µM
same,GI50,UACC-62 melanoma,> 100 µM
same,TGI,UACC-62 melanoma,> 100 µM
same,GI50,HCT-15 colon,> 100 µM
same,TGI,HCT-15 colon,> 100 µM
same,GI50,OVCAR-5 ovarian,62 µM
same,TGI,OVCAR-5 ovarian,> 100 µM
same,GI50,HCT-116 colon,> 100 µM
same,TGI,HCT-116 colon,> 100 µM
same,GI50,PC-3 prostate,> 100 µM
same,TGI,PC-3 prostate,> 100 µM
same,GI50,MALME-3M melanoma,> 100 µM
same,TGI,MALME-3M melanoma,> 100 µM
same,GI50,HS 578T breast,> 100 µM
same,TGI,HS 578T breast,> 100 µM
same,GI50,MOLT-4 leukemia,> 100 µM
same,TGI,MOLT-4 leukemia,> 100 µM
same,GI50,SF-295 CNS,> 100 µM
same,TGI,SF-295 CNS,> 100 µM
